Experiment [1] relates to PGRN protein levels. Kind of experiment: Immunoblotting of PGRN protein in human NPCs. Format: cell-based. As to conditions: 24 h, immunoblot. The protocol: (§1) All compounds were purchased from commercial vendors. All compounds were made at 1000 × stocks in DMSO (Sigma Aldrich #D2438), except for sodium valproate, which was dissolved in ddH2O. NPCs and neurons were generated and maintained as described above. For treatment, the stock compounds were diluted 1:1000 in NPC media (final DMSO concentration 0.1%), which was then applied to confluent NPCs or 18-day differentiated neurons derived from confluent NPC cultures for indicated time periods.
Cell pellets were collected from each well of a 6-well plate (or lysed directly in-well for 24-well plates), lysed in radio immunoprecipitation assay (RIPA) buffer (Boston BioProducts #BP-115) with EDTA-free protease inhibitors (Sigma Aldrich #4,693,159,001) and a phosphatase inhibitor cocktail (Sigma Aldrich #P5726) and nutated at 4 °C for 15–30 min. Lysates were clarified via centrifugation at > 14,000 rcf at 4 °C for > 10 min and the supernatants were collected. Protein quantification was done with the Pierce bicinchoninic assay (BCA) (Thermo Fisher #23,227). Lysates were then stored between − 20 and − 80 °C until ready for use. […]
(§2) In probing for PGRN, proteins were separated on NuPAGE 4–12% Bis–Tris gels (ThermoFisher #NP0335BOX) in MOPS SDS Running buffer (ThermoFisher #NP0001). […] Protein quantification was done with ImageJ and normalized to GAPDH.
On the technique in general: In western blotting, separated proteins are transferred to a membrane and probed.

In another experiment the test system is GRN mRNA. Kind of experiment: qPCR of GRN mRNA in human NPCs (enhancer screen and follow-up). Format: cell-based. To be noted: 24 h; for increase of GRN mRNA: NPCs. As for the experimental part:
as §1
RNA was generated from each well of a 6-well treated plate of NPCs or neurons. First, media from each well was aspirated, and washed with 1 mL of dPBS. Wells were then lysed with 1 mL TRIzol Reagent (ThermoFisher #11,596,026). Wells were then incubated at room temperature for 5 min, and then RNA was extracted using the DirectZol RNA MiniPrep Kit (Zymo Research #R2052). RNA was stored at − 80 °C until further use. cDNA was generated using the High-Capacity cDNA synthesis Kit with RNase inhibitor (ThermoFisher #4,368,814) using 1000–1200 ng RNA per reaction. cDNA was either used immediately or stored at -20 °C until use, where it was then diluted 1:4 with DNase/RNase-free water (Invitrogen #10,977–015).
qPCR was conducted using the Roche 480 Light Cycler in a 384-well plate. To each well was added 5 μL of TaqMan 2X Gene Expression Master Mix (ThermoFisher #4,369,510), 0.5 μL of 20X TaqMan primer probe (ThermoFisher, GRN: Hs00963707_g1, GAPDH: Cat.#432924E), 0.5 μL of DNase/RNase-free H2O, and 4 μL of above diluted cDNA. Results were normalized to GAPDH, and replicate mean values and standard error of the mean are reported.

Experiment [2] relates to PGRN protein levels. The experiment is described as follows: Immunoblotting of PGRN protein in 18-day differentiated neurons. Format: cell-based, human. As to conditions: 24 hours, immunoblot. The protocol: NPCs were seeded at 0.5 × 10^6 cells per well in a poly-ornithine/laminin single coated 6-well plate in 2 mL NPC media with above growth factors. Cells were allowed to incubate at 37 °C for 48–72 h to grow to confluency. After reaching confluency, the media was aspirated, and cells were incubated in NPC media without growth factors for the indicated timeframes, with media changes every 3–4 days.
All compounds were purchased from commercial vendors. All compounds were made at 1000 × stocks in DMSO (Sigma Aldrich #D2438), except for sodium valproate, which was dissolved in ddH2O. NPCs and neurons were generated and maintained as described above. […]
Cell pellets were collected from each well of a 6-well plate (or lysed directly in-well for 24-well plates), lysed in radio immunoprecipitation assay (RIPA) buffer (Boston BioProducts #BP-115) with EDTA-free protease inhibitors (Sigma Aldrich #4,693,159,001) and a phosphatase inhibitor cocktail (Sigma Aldrich #P5726) and nutated at 4 °C for 15–30 min. […] Protein quantification was done with the Pierce bicinchoninic assay (BCA) (Thermo Fisher #23,227). Lysates were then stored between − 20 and − 80 °C until ready for use. […]
as §2

The next experiment deals with PGRN-Luc. Kind of experiment: HMC3 PGRN-luciferase reporter assay. Format: cell-based, human. As to conditions: HMC3 PGRN-Luc cells, 20 h. The protocol: HMC3 PGRN-Luc cells were trypsinized from confluent T-75 flasks and re-suspended in HMC-3 media at 150,000–200,000 cells/mL. 30 µL of cell suspension was then seeded onto each well of black, 384-well clear-bottom plates (Corning 3712) using the Multidrop Combi (Thermo Fisher). Cells were allowed to adhere to plates in the incubator at 37 °C/5% CO2 for 6–8 h. After 6–8 h, compounds were added to each well using the D300e (Tecan) compound dispenser, and all wells were DMSO-normalized (0.3%). Cells were allowed to incubate with compounds for indicated timeframes.
Plates were removed from the incubator and allowed to cool to RT. 15 µL of media was removed from each well using a multichannel pipette and added to separate Corning 3712 plates for a read of “secreted” PGRN. To both the media-containing plates as well as the cell-containing plates (with 15 µL media remaining) is then added 15 µL of active luminescence reagent (Thermo 18,636) which was generated according to manufacturer’s instructions. Plates were allowed to nutate at RT for 15 min prior to reading using the EnVision (PerkinElmer). For calculation of the internal PGRN-Luc signal, the secreted signal (15 µL media) was subtracted from the signal of the cell-containing plates (with 15 µL media remaining). For “total” PGRN-Luc signal, a sample of media was not aliquoted into a separate plate, and instead, 30 µL of active luminescence reagent was added directly to each well.
For the mivebresib and panobinostat time-course experiment, the above procedure was followed, with the exception that cells were seeded at 66,600 cells/mL in 30 µL media, and allowed to grow overnight prior to compound addition for the indicated timeframes.
Background: In a reporter assay the amount or activity of a reporter protein is the signal.

Experiment [3] concerns PGRN protein levels. The experiment is described as follows: PGRN quantification (Jess) in GRN R493X/+ 14-day differentiated neurons. Format: cell-based, human. As to conditions: GRN R493X/+ 14-day growth factor differentiated neurons, 24 h. The protocol:
(§3) PGRN capillary gel electrophoresis experiments were performed using Jess (Bio-Techne) and data were processed and analyzed using Compass for Simple Western software (version 6.0). Runs were conducted using EZ Standard Pack 1 12–230 kDa (Bio-Techne PS-ST01EZ-8), 12–230 kDa pre-filled plates (PS-PP03), 12–230 kDa separation module (SMW004), anti-rabbit HRP detection (DM-001), RePlex (RP-001), and total protein detection modules (DM-TP01, biotin labeling reagent 042-973) according to the manufacturer’s instructions, and with anti-PGRN primary (Abcam ab208777) diluted 1:50 in milk-free antibody dilution buffer (043–524). The following run settings were used for each experiment: separation time: 25 min, separation voltage: 375 V, RePlex purge time: 30 min, biotin labeling time: 30 min, antibody diluent time: 5 min, primary antibody time: 30 min, secondary antibody time: 30 min, total protein HRP time: 30 min. All intensity quantifications are normalized to the total protein assay quantification unless otherwise indicated.
(§4) For GRN^R493^X/+ NPCs, cells were grown to confluency in 6-well plates according to the above NPC culturing procedure. To each well was directly added 2 µL of 100 µM panobinostat, […], or DMSO only to produce final in-well concentrations of 100 nM or 1 µM, respectively (0.1% DMSO final concentration). […]

Experiment [4] has as its system PGRN protein levels. The experiment is described as follows: PGRN quantification (Jess) in GRN R493X/+ NPCs. Format: cell-based, human. To be noted: 24 h. As for the experimental part: as §3, §4

On to `Cc1sc2c(c1C)C(c1ccc(Cl)cc1)=N[C@@H](CC(=O)OC(C)(C)C)c1nnc(C)n1-2` [(+)-JQ1], for which the PGRN protein levels result with PGRN protein levels [1] (1 µM) is “substantially increased PGRN protein levels”. Besides, the “increase of GRN mRNA” value in the experiment on GRN mRNA (1 µM) is ~ 2.5 fold. Further, in the experiment with PGRN protein levels [2] (1 µM), the PGRN expression entry is “can enhance PGRN expression”.
In the case of `Cc1[nH]c2ccccc2c1CCNCc1ccc(/C=C/C(=O)NO)cc1` [Panobinostat, panobinostat], in the experiment on PGRN-Luc, the “enhancement of internal PGRN-Luc signal” value is “able to enhance both internal and secreted PGRN at sub-µM concentrations”; the “enhancement of secreted PGRN-Luc signal” value was “able to enhance both internal and secreted PGRN at sub-µM concentrations”. Besides, the “GRN Fold-change (Norm. to GAPDH) ± Std. Error” value in the experiment on GRN mRNA (human NPCs, dose 1 µM, relative to DMSO) is 3.08 ± 0.35. For the same compound, the PGRN protein levels entry in the experiment on PGRN protein levels [3] is given as “rescues PGRN haploinsufficiency”. In the experiment on PGRN protein levels [4], the PGRN protein levels result is reported as “rescues PGRN haploinsufficiency”.
Take `COc1ccccc1S(=O)(=O)Nc1ccc2c(c1)CN(C)C(=O)N2` [PFI-1]: in the experiment with PGRN protein levels [1] (10 µM), the PGRN protein levels result is listed as “substantially increased PGRN protein levels”. The “increase of GRN mRNA” value with GRN mRNA (10 µM) is recorded as ~ 2.5 fold. In addition, the PGRN expression result with PGRN protein levels [2] (10 µM) was “can enhance PGRN expression”.
